Results reported in patent publication US20240166652A1, “MODULATORS OF THE INTEGRATED STRESS PATHWAY” (Calico Life Sciences LLC, priority 2017, published 2024).

The compounds below were run on ATF4 luciferase reporter in HEK293T cells (assay: ATF4-Luc assay (ATF4 luciferase reporter, tunicamycin-treated HEK293T cells)). Conditions: Homo sapiens, HEK-293T; HEK293T cells carrying the ATF4 luciferase reporter, 1 μg/mL tunicamycin, 7 hours.
Assay type: cell-based, human

Structure (SMILES) | EC50 [nM]
N#Cc1ccc(OCC(=O)NC23CC(NC(=O)COc4ccc(Cl)c(F)c4)(C2)C3)cn1 [Compound 238, 2-(4-chloro-3-fluorophenoxy)-N-(3-{2-[(6-cyanopyridin-3-yl)oxy]acetamido}bicyclo[1.1.1]pentan-1-yl)acetamide] | 10 to 50
CCc1cc(COCC23CC(NC(=O)COc4ccc(Cl)c(F)c4)(C2)C3)on1 [Compound 610, 2-(4-chloro-3-fluorophenoxy)-N-(3-{[(3-ethyl-1,2-oxazol-5-yl)methoxy]methyl}bicyclo[1.1.1]pentan-1-yl)acetamide] | > 2000
Cc1ccc(OCC(=O)NC23CC(NC(=O)COc4ccc(Cl)cc4)(C2)C3)cc1 [Compound 115, 2-(4-chlorophenoxy)-N-{3-[2-(4-methylphenoxy)acetamido]bicyclo-[1.1.1]pentan-1-yl}acetamide] | 50 to 250
O=C(COc1ccc2c(c1)OC(F)(F)O2)NC12CCC(NC(=O)COc3ccc(F)c(F)c3)(CC1)[C@@H](O)C2 [Compound 804, 2-[(2,2-difluoro-2H-1,3-benzodioxol-5-yl)oxy]-N-{(3S)-4-[2-(3,4-difluorophenoxy)acetamido]-3-hydroxybicyclo[2.2.2]octan-1-yl}acetamide] | < 10
COC(=O)C1CC2(NC(=O)COc3ccc(Cl)c(F)c3)CCC1(NC(=O)COc1ccc(Cl)c(F)c1)CC2 (stereo not shown) [Compound 569, methyl 1,4-bis[2-(4-chloro-3-fluorophenoxy)acetamido]bicyclo[2.2.2]octane-2-carboxylate] | < 10
O=C(COc1ccc(C(F)F)cc1)NC12CC(NC(=O)COc3ccc(C(F)F)cc3)(C1)C2 [Compound 389, N,N′-(bicyclo[1.1.1]pentane-1,3-diyl)bis{2-[4-(difluoromethyl)phenoxy]acetamide}] | 250 to 500
O=C(COc1ccc(Cl)c(F)c1)NC12CCC(NC(=O)COc3ccc(Cl)c(F)c3)(CC1=O)C(=O)C2 [Compound 561, N,N′-(2,5-dioxobicyclo[2.2.2]octane-1,4-diyl)bis[2-(4-chloro-3-fluorophenoxy)acetamide]] | < 10
O=C(COCc1cccc(Cl)c1)NC12CC(NC(=O)COc3ccc(Cl)c(Cl)c3)(C1)C2 [Compound 158, 2-[(3-chlorophenyl)methoxy]-N-{3-[2-(3,4-dichlorophenoxy)acetamido]-bicyclo[1.1.1]pentan-1-yl}acetamide] | < 10
O=C(O)CN(CCCOc1ccc(Cl)c(F)c1)C12CC(NC(=O)COc3ccc(Cl)c(F)c3)(C1)C2 [Compound 687, ({3-[2-(4-chloro-3-fluorophenoxy)acetamido]bicyclo[1.1.1]pentan-1-yl}[3-(4-chloro-3-fluorophenoxy)propyl]amino)acetic Acid] | 500 to 2000
Cc1ncc2c(c1OCC(=O)NC13CCC(NC(=O)COc4ccc(Cl)c(F)c4)(CC1)C[C@@H]3O)COC2 [Compound 499, 2-(4-chloro-3-fluorophenoxy)-N-[(3S)-3-hydroxy-4-{2-[(6-methyl-1,3-dihydrofuro[3,4-c]pyridin-7-yl)oxy]acetamido}bicyclo[2.2.2]octan-1-yl]acetamide] | > 2000
O=C(/C=C/c1ccc(Cl)c(Cl)c1)NC12CC(NC(=O)COc3ccc(Cl)c(F)c3)(C1)C2 [Compound 348, (2E)-N-{3-[2-(4-chloro-3-fluorophenoxy)acetamido]bicyclo[1.1.1]pentan-1-yl}-3-(3,4-dichlorophenyl)prop-2-enamide] | 10 to 50
Cc1ccc(COCC(=O)NC23CC(NC(=O)COc4ccc(Cl)c(F)c4)(C2)C3)cc1 [Compound 144, 2-(4-chloro-3-fluorophenoxy)-N-(3-{2-[(4-methylphenyl)methoxy]acetamido}-bicyclo[1.1.1]pentan-1-yl)acetamide] | 250 to 500
CC(C)(C)c1ccc(OCC(=O)NC23CC(NC(=O)COc4ccc(Cl)c(F)c4)(C2)C3)cn1 [Compound 221, 2-[(6-tert-butylpyridin-3-yl)oxy]-N-{3-[2-(4-chloro-3-fluorophenoxy)acetamido]bicyclo[1.1.1]pentan-1-yl}acetamide] | 500 to 2000
